# Results published in patent US10988477B2 (Merck Patent GmbH, priority 2018, dated 2021).
# Assays:
# GCN2 kinase = GCN2 kinase (Homo sapiens, UniProt Q9P2K8); test: GCN2 enzyme inhibition assay (Transcreener ADP2 fluorescence polarization); assay type: biochemical; settings: 280 μM ATP; for Ki: Enzyme activity for compounds of Formula IV, Ki(app), 25° C.; for IC50: compounds of Formula IV, 4 nM GCN2 kinase
# How it was run: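 ADP formation read by Transcreener FP after a 1 h, 25 °C kinase reaction containing 280 μM ATP, 200 μM (RS)7 substrate and 4 nM GCN2, pH 7.5 Tris buffer. Compounds (0–8 μM final) were added 10 min before ATP. Percent inhibition gave IC50 and apparent Ki via tight-binding fit.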
# [1] = target: intracellular GCN2 (phosphorylation of the GCN2 substrate eIF2α) (Homo sapiens, UniProt Q9P2K8); test: GCN2 cellular inhibition assay (AlphaScreen SureFire P-eIF2α Ser51, borrelidin-treated U2OS cells); assay type: cell-based; settings: compounds of Formula IV; biomarker assay, phosphorylated eIF2α Ser51 in borrelidin-treated U2OS cells
# Sequence of intracellular GCN2 (phosphorylation of the GCN2 substrate eIF2α) (Q9P2K8 whole entry): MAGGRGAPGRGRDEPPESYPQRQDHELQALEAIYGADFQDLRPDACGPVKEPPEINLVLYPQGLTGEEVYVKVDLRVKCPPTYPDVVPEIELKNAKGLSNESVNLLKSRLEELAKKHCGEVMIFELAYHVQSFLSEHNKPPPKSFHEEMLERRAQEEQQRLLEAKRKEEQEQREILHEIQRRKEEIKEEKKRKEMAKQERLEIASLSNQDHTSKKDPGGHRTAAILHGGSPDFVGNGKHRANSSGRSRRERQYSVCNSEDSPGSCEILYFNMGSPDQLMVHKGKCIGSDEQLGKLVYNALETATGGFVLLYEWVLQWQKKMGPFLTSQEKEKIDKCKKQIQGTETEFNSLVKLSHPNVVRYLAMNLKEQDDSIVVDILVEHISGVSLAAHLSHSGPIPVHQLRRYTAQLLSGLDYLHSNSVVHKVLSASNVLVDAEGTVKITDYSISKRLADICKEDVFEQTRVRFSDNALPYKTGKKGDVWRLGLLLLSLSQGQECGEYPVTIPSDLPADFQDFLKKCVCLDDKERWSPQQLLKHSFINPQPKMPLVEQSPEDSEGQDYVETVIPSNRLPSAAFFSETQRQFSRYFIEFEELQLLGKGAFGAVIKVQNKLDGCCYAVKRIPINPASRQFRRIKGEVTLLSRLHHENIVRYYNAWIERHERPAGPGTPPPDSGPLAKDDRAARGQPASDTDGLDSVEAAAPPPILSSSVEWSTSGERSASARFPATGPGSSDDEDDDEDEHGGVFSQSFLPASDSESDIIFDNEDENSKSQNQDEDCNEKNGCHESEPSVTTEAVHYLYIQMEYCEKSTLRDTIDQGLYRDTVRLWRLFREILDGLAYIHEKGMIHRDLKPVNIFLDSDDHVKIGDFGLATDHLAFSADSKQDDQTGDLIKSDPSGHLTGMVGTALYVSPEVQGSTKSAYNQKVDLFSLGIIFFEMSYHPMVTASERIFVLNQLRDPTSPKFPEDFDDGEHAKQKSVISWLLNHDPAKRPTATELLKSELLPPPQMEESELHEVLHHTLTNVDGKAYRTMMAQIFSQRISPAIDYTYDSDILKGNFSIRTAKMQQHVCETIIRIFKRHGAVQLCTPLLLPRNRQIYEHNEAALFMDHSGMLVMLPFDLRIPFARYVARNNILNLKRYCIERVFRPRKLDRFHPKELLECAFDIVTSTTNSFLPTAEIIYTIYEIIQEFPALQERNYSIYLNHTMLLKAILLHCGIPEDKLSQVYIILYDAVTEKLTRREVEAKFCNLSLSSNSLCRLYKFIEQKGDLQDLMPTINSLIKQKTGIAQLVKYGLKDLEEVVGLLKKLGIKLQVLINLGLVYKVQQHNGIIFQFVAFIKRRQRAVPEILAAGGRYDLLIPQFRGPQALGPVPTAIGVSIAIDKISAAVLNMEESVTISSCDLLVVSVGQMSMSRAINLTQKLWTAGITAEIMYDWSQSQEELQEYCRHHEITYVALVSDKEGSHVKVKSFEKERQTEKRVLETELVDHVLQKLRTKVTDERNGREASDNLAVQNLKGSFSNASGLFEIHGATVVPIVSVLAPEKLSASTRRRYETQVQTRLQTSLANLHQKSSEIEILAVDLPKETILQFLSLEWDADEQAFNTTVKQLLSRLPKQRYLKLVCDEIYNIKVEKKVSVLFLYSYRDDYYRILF
# How it was run: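 Borrelidin at 10 μM is added to U2OS cells immediately after compound (4-fold dilution series, 40 μM top final) for 1 h at 37 °C. Phosphorylated eIF2α Ser51 in lysates is quantified by AlphaScreen and expressed as percent inhibition against borrelidin-stimulated controls.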
# Sequence of GCN2 kinase (Q9P2K8 whole entry): as above
Compound,Ki (GCN2 kinase) [µM],IC50 [1] [µM],IC50 (GCN2 kinase) [µM]
"CC1CN(c2cc(F)cc(-c3cnc4cnc(C(F)(F)F)cn34)n2)C(C)C(c2cn[nH]c2)N1 (stereo not drawn) [IV-690, 3-(6-(2,5-Dimethyl-3-(1H-pyrazol-4-yl)piperazin-1-yl)-4-fluoropyridin-2-yl)-6-(trifluoromethyl)imidazo[1,2-a]pyrazine]",< 0.01,0.5 to 5,–
"FC(F)(F)c1cn2c(-c3nccc(N4CCCC(c5cncs5)C4)n3)cnc2cn1 (stereo not drawn) [IV-691, 5-(1-(2-(6-(Trifluoromethyl)imidazo[1,2-a]pyrazin-3-yl)pyrimidin-4-yl)piperidin-3-yl)thiazole]",0.01 to 0.1,0.5 to 5,–
"FC(F)(F)c1cn2c(-c3nccc(N4CCC5(CC4)CNC5)n3)cnc2cn1 [IV-692, 3-(4-(2,7-Diazaspiro[3.5]nonan-7-yl)pyrimidin-2-yl)-6-(trifluoromethyl)imidazo[1,2-a]pyrazine]",0.1 to 1,> 5,–
"CC1C(c2cn[nH]c2)CC(P(C)(C)=O)CN1c1ccnc(-c2cnc3cnc(C(F)(F)F)cn23)n1 (stereo not drawn) [IV-693, Dimethyl(6-methyl-5-(1H-pyrazol-4-yl)-1-(2-(6-(trifluoromethyl)imidazo[1,2-a]pyrazin-3-yl)pyrimidin-4-yl)piperidin-3-yl)phosphine oxide]",0.01 to 0.1,> 5,–
"FC(F)(F)c1cn2c(-c3nccc(N4CCCC(c5cocn5)C4)n3)cnc2cn1 (stereo not drawn) [IV-694, 4-(1-(2-(6-(Trifluoromethyl)imidazo[1,2-a]pyrazin-3-yl)pyrimidin-4-yl)piperidin-3-yl)oxazole]",0.1 to 1,> 5,–
"FC(F)(F)c1cn2c(-c3nccc(N4CCC(Oc5cn[nH]c5)C4)n3)cnc2cn1 (stereo not drawn) [IV-695, 3-(4-(3-((1H-Pyrazol-4-yl)oxy)pyrrolidin-1-yl)pyrimidin-2-yl)-6-(trifluoromethyl)imidazo[1,2-a]pyrazine]",0.01 to 0.1,> 5,–
"FC(F)(F)c1cn2c(-c3nccc(N4CCCC(C5CNC5)C4)n3)cnc2cn1 (stereo not drawn) [IV-696, 3-(4-(3-(Azetidin-3-yl)piperidin-1-yl)pyrimidin-2-yl)-6-(trifluoromethyl)imidazo[1,2-a]pyrazine]",0.1 to 1,> 5,–
"FC(F)c1cn2c(-c3nsc(N4CCOC(c5cn[nH]c5)C4)n3)cnc2cn1 (stereo not drawn) [IV-702, 4-(3-(6-(difluoromethyl)imidazo[1,2-a]pyrazin-3-yl)-1,2,4-thiadiazol-5-yl)-2-(1H-pyrazol-4-yl)morpholine]",0.1 to 1,> 5,–
"CS(=O)(=O)NC[C@@H]1CN(c2nc(-c3cnc4cnc(C(F)F)cn34)ns2)CCO1 [IV-703, (S)—N-((4-(3-(6-(difluoromethyl)imidazo[1,2-a]pyrazin-3-yl)-1,2,4-thiadiazol-5-yl)morpholin-2-yl)methyl)methanesulfonamide]",0.1 to 1,> 5,–
"FC(F)(F)c1cn2c(-c3nsc(N4CCOC(c5cn[nH]c5)C4)n3)cnc2cn1 (stereo not drawn) [IV-704, 2-(1H-pyrazol-4-yl)-4-(3-(6-(trifluoromethyl)imidazo[1,2-a]pyrazin-3-yl)-1,2,4-thiadiazol-5-yl)morpholine]",0.1 to 1,> 5,–
"CS(=O)(=O)NC[C@@H]1CN(c2nc(-c3cnc4cnc(C(F)(F)F)cn34)ns2)CCO1 [IV-705, (S)—N-((4-(3-(6-(trifluoromethyl)imidazo[1,2-a]pyrazin-3-yl)-1,2,4-thiadiazol-5-yl)morpholin-2-yl)methyl)methanesulfonamide]",0.1 to 1,> 5,–
Cc1noc([C@@H]2CN(c3ccnc(-c4cnc5cnc(C(F)(F)F)cn45)n3)C[C@H](C)O2)n1 [IV-712],0.1 to 1,> 5,–
Cc1nnc([C@@H]2CN(c3ccnc(-c4cnc5cnc(C(F)(F)F)cn45)n3)C[C@H](C)O2)o1 [IV-716],0.1 to 1,> 5,–
FC(F)(F)c1cn2c(-c3nccc(N4CCOC(c5ccncc5)C4)n3)cnc2cn1 (stereo not drawn) [IV-724],> 1,> 5,–

# Results, then the compound that gave them:
Ki (GCN2 kinase) [µM],IC50 [1] [µM],IC50 (GCN2 kinase) [µM],Compound
> 1,> 5,–,O=C(N[C@H]1CCCN(c2ccnc(-c3cnc4cnc(C(F)(F)F)cn34)n2)C1)c1cn[nH]c1 [IV-733]
> 1,> 5,–,N#Cc1cccc(C(=O)N[C@H]2CCCN(c3ccnc(-c4cnc5cnc(C(F)(F)F)cn45)n3)C2)c1 [IV-741]
> 1,> 5,–,N#Cc1ccc(C(=O)N[C@H]2CCCN(c3ccnc(-c4cnc5cnc(C(F)(F)F)cn45)n3)C2)cc1 [IV-743]
–,< 0.5,0.01 to 1,"C[C@H]1C[C@H](c2c[nH]nc2F)CN(c2nccc(-c3cnc4cnc(C(F)(F)F)cn34)n2)C1 [IV-754, 3-(2-((3R,5S)-3-(3-fluoro-1H-pyrazol-4-yl)-5-methylpiperidin-1-yl)pyrimidin-4-yl)-6-(trifluoromethyl)imidazo[1,2-a]pyrazine]"
–,< 0.5,0.01 to 1,"C[C@@H]1C[C@H](c2c[nH]nc2F)CN(c2nccc(-c3cnc4cnc(C(F)(F)F)cn34)n2)C1 [IV-757, 3-(2-((3R,5R)-3-(3-fluoro-1H-pyrazol-4-yl)-5-methylpiperidin-1-yl)pyrimidin-4-yl)-6-(trifluoromethyl)imidazo[1,2-a]pyrazine]"
–,< 0.5,0.01 to 1,"Cc1n[nH]cc1[C@H]1C[C@@H](C)CN(c2nccc(-c3cnc4cnc(C(F)(F)F)cn34)n2)C1 [IV-758, 3-(2-((3R,5R)-3-methyl-5-(3-methyl-1H-pyrazol-4-yl)piperidin-1-yl)pyrimidin-4-yl)-6-(trifluoromethyl)imidazo[1,2-a]pyrazine]"
–,< 0.5,0.01 to 1,"C[C@H]1C[C@H](c2c[nH]nc2F)CN(c2ccnc(-c3cnc4cnc(C(F)(F)F)cn34)n2)C1 [IV-764, 3-(4-((3R,5S)-3-(3-fluoro-1H-pyrazol-4-yl)-5-methylpiperidin-1-yl)pyrimidin-2-yl)-6-(trifluoromethyl)imidazo[1,2-a]pyrazine]"
–,< 0.5,0.01 to 1,C[C@@H]1C[C@@H](c2c[nH]nc2F)CN(c2ccnc(-c3cnc4cnc(C(F)(F)F)cn34)n2)C1 [IV-765]
–,< 0.5,0.01 to 1,C[C@@H]1C[C@H](c2c[nH]nc2F)CN(c2ccnc(-c3cnc4cnc(C(F)(F)F)cn34)n2)C1 [IV-766]
–,< 0.5,0.01 to 1,"C[C@@H]1C[C@@H](c2cn[nH]c2)CN(c2ccnc(-c3cnc4cnc(C(F)(F)F)cn34)n2)C1 [IV-769, 3-(4-((3R,5S)-3-methyl-5-(1H-pyrazol-4-yl)piperidin-1-yl)pyrimidin-2-yl)-6-(trifluoromethyl)imidazo[1,2-a]pyrazine]"
–,< 0.5,0.01 to 1,"C[C@@H]1C[C@H](c2cn[nH]c2)CN(c2ccnc(-c3cnc4cnc(C(F)(F)F)cn34)n2)C1 [IV-770, 3-(4-((3R,5R)-3-methyl-5-(1H-pyrazol-4-yl)piperidin-1-yl)pyrimidin-2-yl)-6-(trifluoromethyl)imidazo[1,2-a]pyrazine]"
–,< 0.5,< 0.01,"C[C@H]1C[C@@H](c2cn[nH]c2)CN(c2ccnc(-c3cnc4cnc(C(F)(F)F)cn34)n2)C1 [IV-771, 3-(4-((3S,5S)-3-methyl-5-(1H-pyrazol-4-yl)piperidin-1-yl)pyrimidin-2-yl)-6-(trifluoromethyl)imidazo[1,2-a]pyrazine]"
–,0.5 to 5,0.01 to 1,"C[C@@H]1C[C@H](N=S(C)(C)=O)CN(c2ccnc(-c3cnc4cnc(C(F)F)cn34)n2)C1 [IV-772, (((3S,5R)-1-(2-(6-(difluoromethyl)imidazo[1,2-a]pyrazin-3-yl)pyrimidin-4-yl)-5-methylpiperidin-3-yl)imino)dimethyl-16-sulfanone]"
–,> 5,0.01 to 1,"Cc1n[nH]cc1[C@H]1C[C@H](O)CN(c2ccnc(-c3cnc4cnc(C(F)(F)F)cn34)n2)C1 [IV-774, (3S,5R)-5-(3-methyl-1H-pyrazol-4-yl)-1-(2-(6-(trifluoromethyl)imidazo[1,2-a]pyrazin-3-yl)pyrimidin-4-yl)piperidin-3-ol]"
–,> 5,0.01 to 1,"Cc1n[nH]cc1[C@@H]1C[C@@H](O)CN(c2ccnc(-c3cnc4cnc(C(F)(F)F)cn34)n2)C1 [IV-775, (3R,5S)-5-(3-methyl-1H-pyrazol-4-yl)-1-(2-(6-(trifluoromethyl)imidazo[1,2-a]pyrazin-3-yl)pyrimidin-4-yl)piperidin-3-ol]"
–,0.5 to 5,0.01 to 1,"Cc1n[nH]cc1[C@@H]1C[C@H](O)CN(c2ccnc(-c3cnc4cnc(C(F)(F)F)cn34)n2)C1 [IV-777, (3S,5S)-5-(3-methyl-1H-pyrazol-4-yl)-1-(2-(6-(trifluoromethyl)imidazo[1,2-a]pyrazin-3-yl)pyrimidin-4-yl)piperidin-3-ol]"
